Data published in US8829034B2, “Compounds which modulate the CB2 receptor” (Boehringer Ingerlheim International GmbH, priority 2006, dated 2014).

Biological target: T1, human CB2R (Homo sapiens, UniProt P34972)
T1 construct: host or cells: CHO cells
Assay: CB2R mediated modulation of cAMP synthesis
Type: cell-based
Conditions: for agonistic activity: found through the use of the above described assays
Outline: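 CHO cells expressing human CB2R were treated with compound for 30 min at 37 °C in buffer containing 1 mM IBMX, 0.25% BSA and 10 uM forskolin. cAMP was measured after lysis. EC50 was taken as 50% inhibition of forskolin-stimulated cAMP, with 100% defined by 1 uM CP55940, using a four-parameter logistic fit.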

T1 sequence (P34972 whole entry): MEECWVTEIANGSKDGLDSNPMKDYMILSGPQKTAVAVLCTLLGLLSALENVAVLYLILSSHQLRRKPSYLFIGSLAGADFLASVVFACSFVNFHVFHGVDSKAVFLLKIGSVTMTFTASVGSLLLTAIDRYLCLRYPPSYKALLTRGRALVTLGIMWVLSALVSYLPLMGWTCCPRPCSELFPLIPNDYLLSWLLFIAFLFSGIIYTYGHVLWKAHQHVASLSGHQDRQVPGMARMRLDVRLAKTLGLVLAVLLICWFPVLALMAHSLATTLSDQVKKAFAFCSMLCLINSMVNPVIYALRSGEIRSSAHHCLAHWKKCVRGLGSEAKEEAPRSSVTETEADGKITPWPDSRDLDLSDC

Row | Structure (SMILES) | agonistic activity | EC50 [nM]
1 | CC(C)S(=O)(=O)C(C)C(=O)Nc1nc(C(C)(C)C)cs1 (stereo not shown) [N-(4-tert-Butyl-thiazol-2-yl)-2-(propane-2-sulfonyl)-propionamide] | agonistic activity | –
2 | CCCS(=O)(=O)C(C)(C)C(=O)Nc1ccc(-c2ccccc2)cn1 [2-Methyl-N-(5-phenyl-pyridin-2-yl)-2-(propane-1-sulfonyl)-propionamide] | agonistic activity | –
3 | CC(C)S(=O)(=O)C(C)(C)C(=O)Nc1cc(C(C)(C)C)nn1C [N-(5-tert-Butyl-2-methyl-2H-pyrazol-3-yl)-2-methyl-2-(propane-2-sulfonyl)-propionamide] | agonistic activity | –
4 | Cn1nc(C(C)(C)C)cc1NC(=O)C(C)(C)S(=O)(=O)C[C@@H]1CCC(=O)N1 [N-(5-tert-Butyl-2-methyl-2H-pyrazol-3-yl)-2-methyl-2-((S)-5-oxo-pyrrolidin-2-ylmethanesulfonyl)-propionamide] | agonistic activity | –
5 | CC(C)(C)c1cc(NC(=O)C(C)(C)S(=O)(=O)CC2CCOCC2)on1 [N-(3-tert-Butyl-isoxazol-5-yl)-2-methyl-2-(tetrahydro-pyran-4-ylmethanesulfonyl)-propionamide] | agonistic activity | 4
6 | CC(C)(C(=O)Nc1nc(-c2ccncc2)cs1)S(=O)(=O)CC1CCOCC1 [2-Methyl-N-(4-pyridin-4-yl-thiazol-2-yl)-2-(tetrahydro-pyran-4-ylmethanesulfonyl)-propionamide] | agonistic activity | –
7 | CC(C)(C(=O)Nc1nc2ccccc2s1)S(=O)(=O)CC1CCOCC1 [N-Benzothiazol-2-yl-2-methyl-2-(tetrahydro-pyran-4-ylmethanesulfonyl)-propionamide] | agonistic activity | 27.9
8 | CC(C)S(=O)(=O)C(C)(C)C(=O)Nc1nc(-c2cccnc2)cs1 [2-Methyl-2-(propane-2-sulfonyl)-N-(4-pyridin-3-yl-thiazol-2-yl)-propionamide] | agonistic activity | –
9 | CC(C)(C(=O)Nc1nc(-c2ccc(Cl)cc2)cs1)S(=O)(=O)CC1CCOCC1 [N-[4-(4-Chloro-phenyl)-thiazol-2-yl]-2-methyl-2-(tetrahydro-pyran-4-ylmethanesulfonyl)-propionamide] | agonistic activity | 2.2
10 | CC(C)(C)c1cc(NC(=O)C(C)(C)S(=O)(=O)CC2CCOC2)on1 (stereo not shown) [N-(3-tert-Butyl-isoxazol-5-yl)-2-methyl-2-(tetrahydro-furan-3-ylmethanesulfonyl)-propionamide] | agonistic activity | 18.5
11 | CC(C)(C)c1cc(NC(=O)C(C)(C)S(=O)(=O)CC2CCCCC2)on1 [N-(3-tert-Butyl-isoxazol-5-yl)-2-cyclohexylmethanesulfonyl-2-methyl-propionamide] | agonistic activity | 0.1
12 | CC(C)(C)S(=O)(=O)C(C)(C)C(=O)Nc1cc(C(F)(F)F)ccn1 [2-Methyl-2-(2-methyl-propane-2-sulfonyl)-N-(4-trifluoromethyl-pyridin-2-yl)-propionamide] | agonistic activity | –
13 | CC(C)(C)c1cc(NC(=O)C(C)(C)S(=O)(=O)CC2CCC2)on1 [N-(3-tert-Butyl-isoxazol-5-yl)-2-cyclobutylmethanesulfonyl-2-methyl-propionamide] | agonistic activity | 3.7
14 | CCCS(=O)(=O)C(C)(C)C(=O)Nc1cc(C(C)(C)C)on1 [N-(5-tert-Butyl-isoxazol-3-yl)-2-methyl-2-(propane-1-sulfonyl)-propionamide] | agonistic activity | 61.9
15 | CCCC(CC)S(=O)(=O)C(C)(C)C(=O)Nc1cc(C(C)(C)C)nn1C (stereo not shown) [N-(5-tert-Butyl-2-methyl-2H-pyrazol-3-yl)-2-(hexane-3-sulfonyl)-2-methyl-propionamide] | agonistic activity | –
